Reference: patent US20240376035A1, “METHOD FOR PRODUCING HESPERETIN DIHYDROCHALCONE” (SYMRISE AG, priority 2022, published 2024)

Legend:
[1] = system: trained expert panel; assay: Sensory descriptive analysis of ice tea prototypes in different bases (Example 15); type: in vivo; conditions: for ANOVA (sweetness factor score): 10 ppm hesperetin dihydrochalcone and/or 3 ppm hesperetin; for effect on the sweetness factor: main and interaction effects in different bases, all sign. p<0.0001
Text: Based on an experimental design, 86 ice tea prototypes (drinkable preparations) were created that systematically varied regarding different sources of sweetness conveyed by sugars (e.g. HFCS (high fructose corn syrup), invert sugar syrup), sweeteners (Reb A, Reb D, Reb M, sucralose, acesulfame K) as well as hesperetin dihydrochalcone (HC) and hesperetin (HT) (the results are depicted in Table 2).
In order to investigate the effect of HT and HC on perceived sweetness dimensions, the 86 samples were profiled (sensory descriptive analysis) by a trained expert panel consisting of 12 panelists. The panelists were trained on an ice tea language with focus on sweetness attributes. Each attribute was scored on an unstructured line scale (10 cm) for its perceived intensity. To ensure high data reliability, every sample was tested twice. The sweetness attributes “sweetness onset”, “sweetness overall intensity” and “sweetness long-lastingness” were aggregated to a so-called sweetness factor using factor analysis (principal component analysis with VARIMAX rotation). The sweetness factor score runs from neg. infinity to positive infinity. By applying statistical modelling (JMP software: fit model: standard least squares, Analysis of Variance: DF 86, F 19.6907, p<0.0001; Rsquare 0.972) all significant main and two-way interaction effects were identified amongst which HC (p<0.0001), HT (p<0.0001) and the interaction of HC and HT (p<0.0001) were identified. These main and interaction effects were further tested in different bases (see table 2) using ANOVA, p<0.05; post hoc test: LSD.

[2] = preparations having a high content of acid such as lemonades or fruit juices; cited from earlier work
[3] = Acesulfame K Ice tea Base, 60 ppm
[4] = HFCS Ice tea Base, 2 wt. % High Fructose corn syrup
[5] = Invert Sugar Syrup Ice tea Base, 2 wt. % invert sugar syrup
[6] = Reb A Ice tea Base, 60 ppm rebaudioside A
[7] = Reb A/Reb D Ice tea Base, 60 ppm rebaudioside A/60 ppm rebaudioside D
[8] = Reb A/Reb M Ice tea Base, 60 ppm rebaudioside A/45 ppm rebaudioside M
[9] = Reb M/Reb D Ice tea Base, 45 ppm rebaudioside M/60 ppm rebaudioside D
[10] = Sucralose Ice tea Base, 100 ppm sucralose

Row | SMILES | ANOVA (sweetness factor score) [1, 3] | ANOVA (sweetness factor score) [1, 4] | ANOVA (sweetness factor score) [1, 5] | ANOVA (sweetness factor score) [1, 6] | ANOVA (sweetness factor score) [1, 7] | ANOVA (sweetness factor score) [1, 8] | ANOVA (sweetness factor score) [1, 9] | ANOVA (sweetness factor score) [1, 10] | ANOVA (sweetness factor score) ([1]; Sugar Free Ice tea Base) | effect on the sweetness factor [1] | effectivity as intensifier of the sweet flavour [2]
1 | COc1ccc(CCC(=O)c2c(O)cc(O)cc2O)cc1O [Hesperetin dihydrochalcone] | −0.1 | −0.9 | −1 | −0.5 | −0.1 | 0 | −0.3 | −0.8 | −1.3 | positive effect | 
2 | COc1ccc([C@@H]2CC(=O)c3c(O)cc(O)cc3O2)cc1O [Hesperetin, hesperetin] | −2.4 | −3.2 | −3.3 | −2.8 | −2.4 | −2.3 | −2.6 | −3.1 | −3.6 | smallest positive effect | diminished effectivity
